Here are results for two compounds from patent US20060110450A1, “Bilayer tablet of telmisartan and amlodipine” (Boehringer Ingelheim International GmbH, priority 2004, published 2006).

The nature of series [1]: Stability of amlodipine in contact with the basic telmisartan formulation. Type of series: physicochemical. Conditions: direct contact with excipients to be used in a telmisartan formulation (basic components, e.g. sodium hydroxide or meglumine). The text has this: There are various types of fixed dose combination dosage forms conceivable but it cannot be predicted which of these dosage forms best combines product stability, pharmacological efficacy, and reliable manufacture. Generally, combinations of two active pharmaceutical ingredients could be formulated as oral solid or oral liquid dosage forms such as tablets, capsules, coated or sugar-coated tablets, granules, oral solutions, emulsions or suspensions, syrups, and lozenges. In view of experiences with liquid dosage forms of telmisartan, oral liquid dosage forms are not considered a preferred embodiment according to the present invention. An instant release oral solid dosage form containing two drugs could be prepared by either making a powder mixture or a co-granulate of the two active ingredients with the necessary excipients. However, for a combination of telmisartan and amlodipine, this approach turns out not to result in a dosage form with sufficient product stability. […] The ester bonds in the amlodipine molecule appear to be subject to hydrolysis when exposed to an alkaline milieu. […]

For series [2] the following is noted: physiological pH range of the gastrointestinal tract between pH 1 to 7; cited from earlier work.

On to “3-ethyl-5-methyl-2-(2-aminoethoxymethyl)-4-(2-chlorophenyl)-1,4-dihydro-6-methyl-3,5-pyridinedicarboxylate [amlodipine]”, for which, in series [1], the stability of amlodipine entry is “not stable enough”. For `CCCc1nc2c(C)cc(-c3nc4ccccc4n3C)cc2n1Cc1ccc(-c2ccccc2C(=O)O)cc1` [Telmisartan, 4′-[2-n-propyl-4-methyl-6-(1-methylbenzimidazol-2-yl)benzimidazol-1-ylmethyl]biphenyl-2-carboxylic acid], the “solubility in aqueous systems” value in series [2] is “very poor solubility”.
